Reference: patent publication US10676504B2 (Colorado State University Research Foundation, priority 2015, dated 2020)
Read-outs that look alike come from different tables or passages of the source.

Experiments:
HDAC1 = HDAC1 (Homo sapiens, UniProt Q13547); test: HDAC biochemical assay of P5-P12 (Table P1); design: The recombinant, full-length HDAC protein (BPS Biosciences) was incubated; purchased BPS Biosciences
HDAC2 [1] = target: T1, HDAC2 (Homo sapiens, UniProt Q92769); test: HDAC biochemical assay of P5-P12 (Table P1); design: The recombinant, full-length HDAC protein (BPS Biosciences) was incubated; purchased BPS Biosciences
HDAC3 = target: T2, HDAC3 (Homo sapiens, UniProt O15379); test: HDAC biochemical assay of P5-P12 (Table P1)
T2 construct: The recombinant, full-length HDAC protein (BPS Biosciences) was incubated; purchased BPS Biosciences

NCI-60 cancer cell lines [2] = test: cells
colon cancer cell lines [3] = system: colon cancer cell lines
melanoma cell lines = test: cells; settings: read-out: Average Concentration (M), LC50, Melanoma
colon cancer cell lines [4] = test: cells; settings: read-out: Average Concentration (M), LC50, Colon
NCI-60 cancer cell lines [5] = settings: five-dose
HDACs 1-3 = test: HDAC biochemical assay of P5-P12, summary statements
HDAC3/NCor2 = target: T3, HDAC3/NCor2 (Homo sapiens, UniProt O15379); test: HDAC biochemical assay (Example 16)
T3 construct: recombinant, full-length HDAC protein; purchased BPS Biosciences

HDAC2 [6] = target: T1, HDAC2; test: HDAC2 inhibition, trypsin-coupled kinetic fluorescence homogeneous assay (Example 10); assay type: biochemical; design: The recombinant, full-length HDAC protein (BPS Biosciences) was incubated; purchased BPS Biosciences; settings: Conc (uM); logistic curve fit of activity versus concentration; some fits reached max iterations; read-out: X50
[7] = read-out: GI50 concentrations (M), order of magnitude

Sequence of HDAC1 (Q13547 whole entry): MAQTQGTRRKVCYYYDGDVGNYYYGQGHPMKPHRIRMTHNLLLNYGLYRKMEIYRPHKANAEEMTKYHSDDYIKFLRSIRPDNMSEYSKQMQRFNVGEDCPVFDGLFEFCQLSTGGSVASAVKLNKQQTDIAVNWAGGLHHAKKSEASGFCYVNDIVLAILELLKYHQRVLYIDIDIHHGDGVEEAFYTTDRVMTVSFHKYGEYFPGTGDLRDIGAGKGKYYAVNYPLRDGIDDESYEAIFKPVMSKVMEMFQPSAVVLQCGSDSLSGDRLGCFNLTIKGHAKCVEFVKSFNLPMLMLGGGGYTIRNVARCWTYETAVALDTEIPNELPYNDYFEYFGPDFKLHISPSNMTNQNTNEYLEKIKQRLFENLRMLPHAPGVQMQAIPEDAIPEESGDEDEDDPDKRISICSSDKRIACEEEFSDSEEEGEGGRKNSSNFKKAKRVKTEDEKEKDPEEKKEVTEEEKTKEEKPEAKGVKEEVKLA
T2 sequence (O15379 whole entry): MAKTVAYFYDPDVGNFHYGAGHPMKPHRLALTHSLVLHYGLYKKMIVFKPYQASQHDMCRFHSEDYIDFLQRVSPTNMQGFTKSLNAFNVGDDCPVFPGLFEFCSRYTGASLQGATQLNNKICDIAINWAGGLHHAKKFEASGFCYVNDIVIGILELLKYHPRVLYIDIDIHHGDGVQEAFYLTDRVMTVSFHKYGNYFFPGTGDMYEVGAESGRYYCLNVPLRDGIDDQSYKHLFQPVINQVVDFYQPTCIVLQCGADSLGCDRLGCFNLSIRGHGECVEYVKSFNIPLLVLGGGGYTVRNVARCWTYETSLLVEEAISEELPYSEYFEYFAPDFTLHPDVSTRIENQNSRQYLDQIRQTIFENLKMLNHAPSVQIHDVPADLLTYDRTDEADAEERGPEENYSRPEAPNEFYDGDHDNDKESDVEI
T2 sequence (Q9Y618 395-489 partner limits assumed): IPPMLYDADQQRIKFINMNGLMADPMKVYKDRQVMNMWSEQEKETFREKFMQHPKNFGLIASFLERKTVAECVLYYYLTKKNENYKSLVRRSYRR
T1 sequence (Q92769 whole entry): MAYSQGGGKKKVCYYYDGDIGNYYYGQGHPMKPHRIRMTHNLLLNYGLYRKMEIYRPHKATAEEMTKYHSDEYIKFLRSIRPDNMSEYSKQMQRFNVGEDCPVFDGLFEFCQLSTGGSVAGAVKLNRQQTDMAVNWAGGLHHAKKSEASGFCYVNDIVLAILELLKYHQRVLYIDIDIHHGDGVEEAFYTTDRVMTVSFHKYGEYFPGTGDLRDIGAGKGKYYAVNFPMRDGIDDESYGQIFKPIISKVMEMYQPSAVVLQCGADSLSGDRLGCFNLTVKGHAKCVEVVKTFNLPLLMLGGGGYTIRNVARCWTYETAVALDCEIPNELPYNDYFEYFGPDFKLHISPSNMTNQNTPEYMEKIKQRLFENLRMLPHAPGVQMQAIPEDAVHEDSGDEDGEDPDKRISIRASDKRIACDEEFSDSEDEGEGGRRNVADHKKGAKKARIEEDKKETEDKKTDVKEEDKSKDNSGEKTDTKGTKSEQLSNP
T3 sequence (O15379 whole entry): as the sequence (O15379 whole entry) above
T3 sequence (Q9Y618 395-489 partner limits assumed): as the sequence (Q9Y618 395-489 partner limits assumed) above

## CCCCCCCC(=O)SCCC=CC1CC(=O)NCc2cccc(n2)C2=NC(C)(CS2)C(=O)NC(C(C)C)C(=O)N1 (centres unmarked) [Compound P9, Peptide Isostere Pyridyl “IN”]
HDAC1; Table P1
  IC50: 340 nM
HDAC2 [1]; Table P1
  IC50: 472 nM
HDAC3; Table P1
  IC50: 332 nM

## CCCCCCCC(=O)SCC/C=C/[C@@H]1CC(=O)NCc2nc(cs2)C2=N[C@@](C)(CS2)C(=O)N[C@@H](C(C)C)C(=O)N1 [drawing 78]
NCI-60 cancer cell lines [2]; [7]
  GI50: 1e-07 M

## CC(C)[C@@H]1NC(=O)[C@]2(C)CSC(=N2)c2coc(n2)CNC(=O)C[C@@H](/C=C/CCSC(c2ccccc2)(c2ccccc2)c2ccccc2)OC1=O
From CC(C)[C@H](NC(=O)[C@]1(C)CSC(c2coc(CNC(=O)OC(C)(C)C)n2)=N1)C(=O)O[C@H](/C=C/CCSC(c1ccccc1)(c1ccccc1)c1ccccc1)CC(=O)OCC[Si](C)(C)C, amide bond, T3P, DCM, 0.99 mM, 2 steps
  ring closure, yield of all isomers: 35%

## CC(C)[C@@H]1NC(=O)[C@]2(C)CSC(=N2)c2csc(n2)CNC(=O)C[C@@H](/C=C/CCSC(c2ccccc2)(c2ccccc2)c2ccccc2)NC1=O
From COC(=O)C[C@@H](/C=C/CCSC(c1ccccc1)(c1ccccc1)c1ccccc1)NC(=O)[C@@H](NC(=O)[C@]1(C)CSC(c2csc(CNC(=O)OC(C)(C)C)n2)=N1)C(C)C, amide bond, HATU/iPr2NEt, MeCN, 0.96 mM, 3 steps
  ring closure, yield of all isomers: 50%

## CCCCCCCC(=O)SCC/C=C/[C@@H]1CC(=O)NCc2cccc(n2)C2=N[C@@](C)(CS2)C(=O)N[C@@H](C(C)C)C(=O)O1 [compound of formula bb]
NCI-60 cancer cell lines [2]; read-out: Average Concentration (M), GI50
  GI50: 7.62e-08 M
Colon cancer cell lines [3]
  Total Impacted Cell Lines (n), LC50, Colon: 2
Colon cancer cell lines [3]; five-dose
  Percent of Cell Lines Impacted (%), LC50, Colon: 29%
Renal cancer cell lines
  Total Impacted Cell Lines (n), LC50, Renal: 2
Renal cancer cell lines; five-dose
  Percent of Cell Lines Impacted (%), LC50, Renal: 25%
Melanoma cell lines
  CC50: 7.01e-07 M
Colon cancer cell lines [4]
  CC50: 1.29e-05 M
NCI-60 cancer cell lines [5]; 50% Growth Inhibition
  Percent of Cell Lines Impacted (%), GI50: 100%
NCI-60 cancer cell lines [5]; 50% Lethal Concentration reached
  Percent of Cell Lines Impacted (%), LC50: 12%
NCI-60 cancer cell lines [5]; Total Growth Inhibition
  Percent of Cell Lines Impacted (%), TGI: 47%
  Total Impacted Cell Lines (n), TGI: 27

## CC(C)[C@@H]1NC(=O)[C@]2(C)CSC(=N2)c2ccnc(c2)CNC(=O)C[C@@H](/C=C/CCSC(c2ccccc2)(c2ccccc2)c2ccccc2)OC1=O
From CC(C)[C@H](NC(=O)[C@]1(C)CSC(c2ccnc(CNC(=O)OC(C)(C)C)c2)=N1)C(=O)O[C@H](/C=C/CCSC(c1ccccc1)(c1ccccc1)c1ccccc1)CC(=O)OCC[Si](C)(C)C, amide bond, HATU/HOBt/DIPEA, acetonitrile, 1.0 mM, 18.0 h, 2 steps
  ring closure, yield of all isomers: 23%

## CCCCCCCC(=O)SCC/C=C/[C@@H]1CC(=O)NCc2cccc(n2)C2=N[C@@](C)(CS2)C(=O)N[C@@H](C(C)C)C(=O)O1 [drawing 79]
NCI-60 cancer cell lines [2]; [7]
  GI50: 1e-08 M

## CCCCCCCC(=O)SCCC=CC1CC(=O)NCc2cc(ccn2)C2=NC(C)(CS2)C(=O)NC(C(C)C)C(=O)O1 (centres unmarked) [Compound P7, Depsipeptide Pyridyl “OUT”]
HDAC1; Table P1
  IC50: 340 nM
HDAC2 [1]; Table P1
  IC50: 655 nM
HDAC3; Table P1
  IC50: 320 nM

## CCCCCCCC(=O)SCC/C=C/[C@@H]1CC(=O)NCc2cc(ccn2)C2=N[C@@](C)(CS2)C(=O)N[C@@H](C(C)C)C(=O)N1 [Compound P11, Peptide Isostere Pyridyl “OUT”]
HDAC1; Table P1
  IC50: 817 nM
HDAC2 [1]; Table P1
  IC50: 1240 nM
HDACs 1-3
  IC50 range in words for HDACs 1-3: high nM-μM range
HDAC3; Table P1
  IC50: 846 nM

## CC(C)[C@@H]1NC(=O)[C@]2(C)CSC(=N2)c2cccc(n2)CNC(=O)C[C@@H](/C=C/CCSC(c2ccccc2)(c2ccccc2)c2ccccc2)OC1=O
From CC(C)[C@H](NC(=O)[C@]1(C)CSC(c2cccc(CNC(=O)OC(C)(C)C)n2)=N1)C(=O)O[C@H](/C=C/CCSC(c1ccccc1)(c1ccccc1)c1ccccc1)CC(=O)OCC[Si](C)(C)C, amide bond, HATU, acetonitrile, 0.96 mM, 18.0 h, 2 steps
  ring closure, yield of all isomers: 20%

## CC(C)[C@@H]1NC(=O)[C@]2(C)CSC(=N2)c2csc(n2)CNC(=O)C[C@@H](/C=C/CCCC(=O)Nc2ccccc2N)OC1=O [Benzamide (12b)]
HDAC3/NCor2
  IC50: 14000 nM

## CCCCCCCC(=O)SCCC=CC1CC(=O)NCc2cccc(n2)C2=NC(C)(CS2)C(=O)NC(C(C)C)C(=O)O1 (centres unmarked) [Compound P5, Depsipeptide Pyridyl “IN”]
HDAC1; Table P1
  IC50: 204 nM
HDAC2 [1]; Table P1
  IC50: 350 nM
HDAC3; Table P1
  IC50: 332 nM

## CC(C)[C@@H]1NC(=O)[C@@]2(C)CSC(=N2)c2csc(n2)CNC(=O)C[C@H](/C=C/CCSC(c2ccccc2)(c2ccccc2)c2ccccc2)OC1=O
From CC(C)[C@H](NC(=O)[C@@]1(C)CSC(c2csc(CNC(=O)OC(C)(C)C)n2)=N1)C(=O)O[C@@H](/C=C/CCSC(c1ccccc1)(c1ccccc1)c1ccccc1)CC(=O)OCC[Si](C)(C)C, amide bond, 2 steps
  ring closure, yield of all isomers: 87%

## CC(C)[C@@H]1NC(=O)[C@]2(C)CSC(=N2)c2cccc(n2)CNC(=O)C[C@@H](/C=C/CCS)NC1=O [Compound P10, Peptide Isostere Pyridyl “IN” Thiol]
HDAC1; Table P1
  IC50: 42 nM
HDAC2 [1]; Table P1
  IC50: 69.8 nM
HDACs 1-3
  IC50 range in words for HDACs 1-3: double-digit nM range
HDAC3; Table P1
  IC50: 42.5 nM

## CC(C)[C@@H]1NC(=O)[C@]2(C)CSC(=N2)c2cccc(n2)CNC(=O)C[C@@H](/C=C/CCSC(c2ccccc2)(c2ccccc2)c2ccccc2)NC1=O
From COC(=O)C[C@@H](/C=C/CCSC(c1ccccc1)(c1ccccc1)c1ccccc1)NC(=O)[C@@H](NC(=O)[C@]1(C)CSC(c2cccc(CNC(=O)OC(C)(C)C)n2)=N1)C(C)C, amide bond, HATU/HOBt/DIPEA, acetonitrile, 0.97 mM, 3 steps
  ring closure, yield of all isomers: 33%

## CCCCCCCC(=O)SCC/C=C/[C@@H]1CC(=O)NCc2nc(cs2)C2=N[C@@](C)(CS2)C(=O)N[C@@H](C(C)C)C(=O)N1 [Largazole peptide isostere]
HDAC1
  IC50: 544 nM
HDAC2 [1]
  IC50: 825 nM
HDAC3
  IC50: 1150 nM

## CC(C)[C@@H]1NC(=O)[C@]2(C)CSC(=N2)c2csc(n2)CNC(=O)C[C@@H](/C=C/CCCCS)OC1=O [ab6_162alr1 n + 2 thiol]
HDAC2 [6]
  IC50: 0.0785 µM

## C[C@@]12CSC(=N1)c1csc(n1)CNC(=O)C[C@@H](/C=C/CCSC(c1ccccc1)(c1ccccc1)c1ccccc1)OC(=O)[C@@H]1CCCN1C2=O
From CC(C)(C)OC(=O)NCc1nc(C2=N[C@](C)(C(=O)N3CCC[C@H]3C(=O)O[C@H](/C=C/CCSC(c3ccccc3)(c3ccccc3)c3ccccc3)CC(=O)OCC[Si](C)(C)C)CS2)cs1, amide bond, HATU/iPr2NEt, MeCN, 0.83 mM, 2 steps
  ring closure, yield of all isomers: 43%

## CC(C)[C@@H]1NC(=O)[C@]2(C)CSC(=N2)c2ccnc(c2)CNC(=O)C[C@@H](/C=C/CCSC(c2ccccc2)(c2ccccc2)c2ccccc2)NC1=O
From COC(=O)C[C@@H](/C=C/CCSC(c1ccccc1)(c1ccccc1)c1ccccc1)NC(=O)[C@@H](NC(=O)[C@]1(C)CSC(c2ccnc(CNC(=O)OC(C)(C)C)c2)=N1)C(C)C, amide bond, HATU/HOBt/DIPEA, acetonitrile, 0.97 mM, 3 steps
  ring closure, yield of all isomers: 32%

## CC(=O)N[C@@H](CC(C)C)C(=O)N[C@@H](CC(C)C)C(=O)N[C@H](C=O)CCCNC(=N)N [Leupeptin, reference compound]
HDAC2 [6]
  IC50: 0.308 µM
